IC50 data for 47 molecules are collected here from patent US8791267B2, “Biaryl PDE4 inhibitors for treating inflammatory, cardiovascular and CNS disorders” (Decode Genetics EHF, priority 2007, dated 2014).

SMILES strings stand for the structures. Structures can show the parent of a compound that is named as a salt.

For test [1], the target named is PDE4 (Homo sapiens, UniProt Q08499). The experiment in a line: In-vitro assay for PDE4 enzymes, real-time enzyme-coupled spectrophotometric assay (Table 9). Format: biochemical. Particulars: human PDE4D; activity class, Table 9; read-out: hPDE4D.
Sequence of PDE4 (Q08499 whole entry): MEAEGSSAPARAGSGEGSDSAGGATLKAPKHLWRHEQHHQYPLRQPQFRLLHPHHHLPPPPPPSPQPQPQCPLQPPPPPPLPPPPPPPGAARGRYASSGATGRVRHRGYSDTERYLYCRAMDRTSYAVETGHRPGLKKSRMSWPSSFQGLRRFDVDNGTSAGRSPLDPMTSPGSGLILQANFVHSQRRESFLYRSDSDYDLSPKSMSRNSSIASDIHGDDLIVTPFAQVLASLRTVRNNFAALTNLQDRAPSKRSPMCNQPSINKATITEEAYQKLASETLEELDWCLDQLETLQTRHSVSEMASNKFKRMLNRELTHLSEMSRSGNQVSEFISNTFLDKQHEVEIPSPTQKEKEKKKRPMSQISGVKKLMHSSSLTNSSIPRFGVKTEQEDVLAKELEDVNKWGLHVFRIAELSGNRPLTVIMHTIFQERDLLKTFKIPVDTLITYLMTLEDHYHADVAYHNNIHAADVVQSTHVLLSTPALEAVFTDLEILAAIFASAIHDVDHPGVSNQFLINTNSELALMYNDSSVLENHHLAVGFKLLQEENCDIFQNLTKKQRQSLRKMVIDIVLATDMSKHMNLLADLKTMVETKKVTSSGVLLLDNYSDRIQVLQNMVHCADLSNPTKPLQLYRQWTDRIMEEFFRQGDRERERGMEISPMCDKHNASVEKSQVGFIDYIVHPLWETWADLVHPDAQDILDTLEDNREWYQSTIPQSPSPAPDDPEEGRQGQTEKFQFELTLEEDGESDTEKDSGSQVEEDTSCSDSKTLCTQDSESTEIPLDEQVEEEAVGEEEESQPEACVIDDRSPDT
Test [2] addresses PDE4B (Homo sapiens, UniProt Q07343). The test is described as follows: In-vitro assay for PDE4 enzymes, real-time enzyme-coupled spectrophotometric assay, PDE4B Activity (Table 10). Format: biochemical. Particulars: human PDE4B (hPDE4B), enzyme-coupled spectrophotometric assay; read-out: PDE4B Activity, hPDE4B.

Sequence of PDE4B (Q07343 whole entry): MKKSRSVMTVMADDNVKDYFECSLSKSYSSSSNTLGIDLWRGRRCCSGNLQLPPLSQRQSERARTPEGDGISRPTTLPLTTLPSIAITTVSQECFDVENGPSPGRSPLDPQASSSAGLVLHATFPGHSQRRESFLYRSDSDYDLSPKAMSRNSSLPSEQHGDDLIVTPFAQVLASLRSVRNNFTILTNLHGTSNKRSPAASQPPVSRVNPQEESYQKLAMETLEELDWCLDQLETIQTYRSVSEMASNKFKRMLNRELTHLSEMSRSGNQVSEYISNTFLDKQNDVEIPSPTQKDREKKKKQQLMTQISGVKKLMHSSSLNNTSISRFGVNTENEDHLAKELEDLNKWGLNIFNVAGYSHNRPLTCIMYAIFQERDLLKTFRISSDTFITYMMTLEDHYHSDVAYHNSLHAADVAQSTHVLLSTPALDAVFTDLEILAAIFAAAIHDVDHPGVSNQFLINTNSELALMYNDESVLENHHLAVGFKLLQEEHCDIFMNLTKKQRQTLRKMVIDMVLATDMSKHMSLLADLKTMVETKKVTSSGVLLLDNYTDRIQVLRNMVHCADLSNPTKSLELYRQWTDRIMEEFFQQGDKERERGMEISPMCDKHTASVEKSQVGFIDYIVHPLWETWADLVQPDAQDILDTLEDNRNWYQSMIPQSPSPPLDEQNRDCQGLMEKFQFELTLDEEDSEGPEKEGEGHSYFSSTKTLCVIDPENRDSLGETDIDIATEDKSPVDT

`COc1ccc(Cc2ccc(NC(N)=O)c(O)c2)c(F)c1-c1cccc(Cl)c1` [P-262]: the IC50 in test [1] and in test [2] was less than 5 µM each time.

Take `COc1ccc(Cc2ccc3[nH]c(=O)oc3c2)c(F)c1-c1cccc(Cl)c1` [P-263]: the IC50 in test [1] and in test [2] was less than 5 µM throughout.

Take `COc1ccc(Cc2ccc(NS(C)(=O)=O)c(O)c2)c(F)c1-c1cccc(Cl)c1` [P-264]: the IC50 in test [1] is less than 5 µM; in test [2], 5 to 20 µM.

For the molecule `COc1ccc(Cc2ccc(S(N)(=O)=O)cc2)cc1-c1cccc(Cl)c1` [P-266, 4-(3′-Chloro-6-methoxy-biphenyl-3-ylmethyl)-benzenesulfonamide], the IC50 in test [1] and in test [2] was less than 5 µM in each case.

Consider `COc1ccc(Nc2ccc(NS(C)(=O)=O)cc2)cc1-c1cccc(C(C)=O)c1` [P-267, N-[4-(3′-Acetyl-6-methoxy-biphenyl-3-ylamino)-phenyl]-methanesulfonamide], for which the IC50 in test [1] and in test [2] was less than 5 µM each time.

As for `COc1ccc(Nc2ccc(NC(N)=O)cc2)cc1-c1cccc(C(C)=O)c1` [P-268, [4-(3′-acetyl-6-methoxy-biphenyl-3-ylamino)-phenyl]-urea], the IC50 in test [1] is less than 5 µM; in test [2], 5 to 20 µM.

With `COc1ccc(Cc2ccc(NC(N)=O)cc2)c(F)c1-c1cccc(C(C)=O)c1` [P-269, [4-(3′-Acetyl-2-fluoro-6-methoxy-biphenyl-3-ylmethyl)-phenyl]urea], the IC50 in test [1] and in test [2] was less than 5 µM in each case.

For `COc1ccc(Cc2cccc(NC(N)=O)c2)cc1-c1cccc(Cl)c1` [P-270, [3-(3′-Chloro-6-methoxy-biphenyl-3-ylmethyl)-phenyl]-urea], the figures for the IC50 in test [1] and in test [2] were less than 5 µM and 5 to 20 µM, respectively.

`COc1ccc(Cc2ccc(C#N)c(F)c2)c(F)c1-c1cccc(Cl)c1` [P-274]: the IC50 in test [1] and in test [2] was less than 5 µM throughout.

For the molecule `COc1ccc(Cc2ccc(CN)c(F)c2)c(F)c1-c1cccc(Cl)c1` [P-275], the IC50 in test [1] was less than 5 µM; in test [2], 5 to 20 µM.

Turning to `COc1ccc(Cc2ccc(N)nc2)c(F)c1-c1cccc(C(C)=O)c1` [P-277, 1-[3′-(6-Amino-pyridin-3-ylmethyl)-2′-fluoro-6′-methoxy-biphenyl-3-yl]-ethanone], the IC50 in test [1] and in test [2] was less than 5 µM each time.

`COc1ccc(Cc2cnc(N)nc2)c(F)c1-c1cccc(Cl)c1` [P-278]: the IC50 in test [1] and in test [2] was less than 5 µM each time.

Regarding `CCOc1ccc(Cc2ccc(NC(N)=O)nc2)c(F)c1-c1cccc(Cl)c1` [P-279], the IC50 in test [1] and in test [2] was less than 5 µM in each case.

Turning to `COc1ccc(Nc2ccc(N)cc2)cc1-c1cccc(Cl)c1` [P-280, N-(3′-Chloro-6-methoxy-biphenyl-3-yl)-benzene-1,4-diamine; hydrochloride], the IC50 in test [1] and in test [2] was less than 5 µM each time.

On to `COc1ccc(Cc2cnc(N)nc2)c(F)c1-c1cccc(C(C)=O)c1` [P-281, 1-[3′-(2-Amino-pyrimidin-5-ylmethyl)-2′-fluoro-6′-methoxy-biphenyl-3-yl]-ethanone hydrochloride], for which the IC50 in test [1] and in test [2] was less than 5 µM in each case.

As for `COc1ccc(Cc2cccc(C(N)=O)c2)cc1-c1cccc(Cl)c1` [P-282, 3-(3′-Chloro-6-methoxy-biphenyl-3-ylmethyl)-benzamide], the IC50 in test [1] is less than 5 µM; in test [2] it was 5 to 20 µM.

Take `COc1ccc(Oc2ccc(N)cc2)c(F)c1-c1cccc(C(C)=O)c1` [P-283, 4-(3′-Acetyl-2-fluoro-6-methoxy-biphenyl-3-yloxy)-phenyl-amine hydrochloride salt]: the IC50 in test [1] and in test [2] was less than 5 µM in each case.

Consider `COc1ccc(Cc2cnc(NS(C)(=O)=O)nc2)c(F)c1-c1cccc(C(C)=O)c1` [P-284, N-[5-(3′-Acetyl-2-fluoro-6-methoxy-biphenyl-3-ylmethyl)-pyrimidin-2-yl]-methanesulfonamide], for which the IC50 in test [1] and in test [2] was less than 5 µM in each case.

`COc1ccc(Cc2ccc3nc(N)oc3c2)c(F)c1-c1cccc(Cl)c1` [P-285]: the IC50 in test [1] was less than 5 µM; in test [2] it was 5 to 20 µM.

Consider `COc1ccc(Cc2ccc(CNC(N)=O)c(F)c2)c(F)c1-c1cccc(Cl)c1` [P-287], for which the IC50 in test [1] and in test [2] was less than 5 µM in each case.

For `COc1ccc(Cc2cnc(NC(N)=O)nc2)c(F)c1-c1cccc(Cl)c1` [P-291], the IC50 in test [1] and in test [2] was less than 5 µM each time.

As for `COc1ccc(Cc2cnc(NS(C)(=O)=O)nc2)c(F)c1-c1cccc(Cl)c1` [P-292], the IC50 in test [1] was less than 5 µM; in test [2], 5 to 20 µM.

As for `COc1ccc(Cc2ccc(C#N)c(O)c2)c(F)c1-c1cccc(Cl)c1` [P-295], the values for the IC50 in test [1] and in test [2] were less than 5 µM and 21 to 40 µM, respectively.

With `COc1ccc(Cc2ccc(CN)c(O)c2)c(F)c1-c1cccc(Cl)c1` [P-296], the IC50 in test [1] is less than 5 µM; in test [2], 21 to 40 µM.

Take `COc1ccc(Cc2ccc(NS(C)(=O)=O)nc2)c(F)c1-c1cccc(C(C)=O)c1` [P-297]: the IC50 in test [1] is less than 5 µM; in test [2] it was 5 to 20 µM.

Regarding `COc1ccc(Cc2ccc(CNS(C)(=O)=O)c(O)c2)c(F)c1-c1cccc(Cl)c1` [P-299], the IC50 in test [1] was less than 5 µM; in test [2] it was 5 to 20 µM.

For `COc1ccc(Cc2ccc(CNC(C)=O)c(F)c2)c(F)c1-c1cccc(Cl)c1` [P-300], the IC50 in test [1] and in test [2] was less than 5 µM in each case.

As to `COc1ccc(Cc2ccc(CNC(N)=O)c(O)c2)c(F)c1-c1cccc(Cl)c1` [P-301], the IC50 in test [1] and in test [2] was less than 5 µM throughout.

Consider `COc1ccc(Cc2ccc(CNC(C)=O)c(O)c2)c(F)c1-c1cccc(Cl)c1` [P-302], for which the IC50 in test [1] and in test [2] was less than 5 µM in each case.

As to `COc1ccc(Cc2ccc(N(C)C)cc2)c(F)c1-c1cccc(Cl)c1` [P-303, [4-(3′-Chloro-2-fluoro-6-methoxy-biphenyl-3-ylmethyl)-phenyl]-dimethyl-amine], the IC50 in test [1] and in test [2] was less than 5 µM throughout.

Regarding `COc1ccc(Cc2ccc(S(N)(=O)=O)cc2)c(F)c1-c1cccc(C(C)=O)c1` [P-304], the IC50 in test [1] and in test [2] was less than 5 µM throughout.

As to `COc1ccc(Cc2ccc(C(N)=O)cc2)c(F)c1-c1cccc(C(C)=O)c1` [P-305, 4-(3′-Acetyl-2-fluoro-6-methoxy-biphenyl-3-ylmethyl)-benzamide], the IC50 is less than 5 µM in test [1] and 5 to 20 µM in test [2].

Take `CCOc1ccc(Cc2ccc(OC)c(-c3cccc(Cl)c3)c2F)s1` [P-310, 2-(3′-Chloro-2-fluoro-6-methoxy-biphenyl-3-ylmethyl)-5-ethoxythiophene]: the IC50 in test [1] and in test [2] was less than 5 µM throughout.

`CNc1ccc(Cc2ccc(OC)c(-c3cccc(Cl)c3)c2F)cc1` [P-311, [4-(3′-Chloro-2-fluoro-6-methoxy-biphenyl-3-ylmethyl)-phenyl]-methyl-amine]: the IC50 in test [1] and in test [2] was less than 5 µM throughout.

`CC(=O)Nc1ccc(Cc2ccc(OC(F)F)c(-c3cccc(Br)c3)c2F)cc1` [P-313]: the IC50 in test [1] and in test [2] was less than 5 µM each time.

As to `CCNC(=O)Nc1ncc(Cc2ccc(OC)c(-c3cccc(C(C)=O)c3)c2F)cn1` [P-315, 1-[5-(3′-Acetyl-2-fluoro-6-methoxy-biphenyl-3-ylmethyl)-pyrimidin-2-yl]-3-ethyl-urea], the IC50 in test [1] and in test [2] was less than 5 µM in each case.

With `NC(=O)Nc1ccc(Cc2ccc(OC(F)F)c(-c3cccc([N+](=O)[O-])c3)c2F)cc1` [P-316], the IC50 in test [1] and in test [2] was less than 5 µM in each case.

As for `Nc1ccc(Cc2ccc(OC(F)F)c(-c3cccc(Br)c3)c2F)cc1` [P-317], the IC50 in test [1] and in test [2] was less than 5 µM throughout.

Take `CCNc1ccc(Cc2ccc(OC)c(-c3cccc(Cl)c3)c2F)cn1` [P-318]: the IC50 in test [1] and in test [2] was less than 5 µM throughout.

Consider `NC(=O)Nc1ccc(Cc2ccc(OC(F)F)c(-c3cccc(Br)c3)c2F)cc1` [P-323], for which the IC50 in test [1] and in test [2] was less than 5 µM throughout.

As to `COc1ccc(Cc2cnc(N(C)C)nc2)c(F)c1-c1cccc(C(C)=O)c1` [P-325, 1-[3′-(2-Dimethylamino-pyrimidin-5-ylmethyl)-2′-fluoro-6′-methoxy-biphenyl-3-yl]-ethanone], the IC50 in test [1] and in test [2] was less than 5 µM in each case.

Turning to `COc1ccc(Cc2ccc(C(N)=O)nc2)c(F)c1-c1cccc(C(C)=O)c1` [P-328, 5-(3′-Acetyl-2-fluoro-6-methoxy-biphenyl-3-ylmethyl)-pyridine-2-carboxylic acid amide], the IC50 in test [1] and in test [2] was less than 5 µM each time.

Consider `COc1ccc(Cc2ccc(CNC(C)=O)c(F)c2)c(F)c1-c1cccc(C(C)=O)c1` [P-329], for which the IC50 in test [1] and in test [2] was less than 5 µM each time.

As for `COc1ccc(Cc2ccc(CNC(N)=O)c(F)c2)c(F)c1-c1cccc(C(C)=O)c1` [P-330], the IC50 in test [1] and in test [2] was less than 5 µM each time.

As for `CNc1ccc(Cc2ccc(OC)c(-c3cccc(C(C)=O)c3)c2F)cc1` [P-331, [4-(3′-Acetyl-2-fluoro-6-methoxy-biphenyl-3-ylmethyl)-phenyl]-methyl-amine hydrochloride], the IC50 in test [1] and in test [2] was less than 5 µM each time.

For `COc1ccc(Cc2ccc(N(C)C)nc2)c(F)c1-c1cccc(C(C)=O)c1` [P-332, 1-[3′-(6-Dimethylamino-pyridin-3-ylmethyl)-2′-fluoro-6′-methoxy-biphenyl-3-yl]-ethanone], the IC50 in test [1] and in test [2] was less than 5 µM in each case.

As to `COc1ccc(Cc2nnc(N)s2)c(F)c1-c1cccc(Cl)c1` [P-333, 5-(3′-Chloro-2-fluoro-6-methoxy-biphenyl-3-ylmethyl)-[1,3,4]thiadiazol-2-ylamine], the IC50 in test [1] and in test [2] was less than 5 µM each time.
